Measurements published in ChEMBL document CHEMBL4665719, “Development of SKI-349, a dual-targeted inhibitor of sphingosine kinase and microtubule polymerization” (Bioorg Med Chem Lett, 2020).
Active and inactive are the calls of the source. The calls are words filed in the database; no cut-off is given here.

Legend:
[1] = biological target: Cyclin-dependent kinase 1 (Homo sapiens) (UniProt P06493); assay: Activation of CDK1 in human HL60/VCR cells assessed as induction of Bcl2 phosphorylation at Ser70 residue at 300 nM after 24 hrs by Western blot analysis; type: cell-based; settings: filed as activator
[2] = biological target: Glycogen synthase kinase-3 beta (Homo sapiens) (UniProt P49841); assay: Inhibition of wild-type human full length GSK3B (M1 to T433 residues) expressed in mammalian expression system assessed as residual activity at 1 uM by Kinomescan method relative to control
[3] = biological target: Glycogen synthase kinase-3 alpha (Homo sapiens) (UniProt P49840); assay: Inhibition of wild type full length human GSK3A (M1 to S483 residues) expressed in bacterial expression assessed as residual activity at 1 uM by Kinomescan method relative to control
Sphingosine kinase 1 [4] = biological target: T1, Sphingosine kinase 1 (Homo sapiens, UniProt Q9NYA1); assay: Inhibition of recombinant His6x-tagged human SphK1 expressed in HEK293 cells assessed as reduction in S1P formation using D-erythro-sphingosine as substrate by […]
Tubulin (Homo sapiens) = Tubulin (Homo sapiens) (UniProt P68371+Q9H4B7+P0DPH7+P68366+Q13509+Q71U36+P04350+Q3ZCM7+P07437+P68363+Q9BQE3+Q6PEY2+Q13885+Q9BVA1+Q9BUF5); assay: Inhibition of tubulin polymerization in human MOLM-13 cells assessed as disruption of microtubule network at 500 nM after 18 hrs by FITC-staining based flow cytometry analysis; type: cell-based
[5] = biological target: T2, Sphingosine kinase 2 (Homo sapiens) (UniProt Q9NRA0); assay: Binding affinity to SphK2 in HEK293 cells assessed as induction of thermal stabilization at 1 uM and 48.8 to 68.2 degreeC by CETSA-based Western blot analysis; type: cell-based
T2 sequence (whole entry): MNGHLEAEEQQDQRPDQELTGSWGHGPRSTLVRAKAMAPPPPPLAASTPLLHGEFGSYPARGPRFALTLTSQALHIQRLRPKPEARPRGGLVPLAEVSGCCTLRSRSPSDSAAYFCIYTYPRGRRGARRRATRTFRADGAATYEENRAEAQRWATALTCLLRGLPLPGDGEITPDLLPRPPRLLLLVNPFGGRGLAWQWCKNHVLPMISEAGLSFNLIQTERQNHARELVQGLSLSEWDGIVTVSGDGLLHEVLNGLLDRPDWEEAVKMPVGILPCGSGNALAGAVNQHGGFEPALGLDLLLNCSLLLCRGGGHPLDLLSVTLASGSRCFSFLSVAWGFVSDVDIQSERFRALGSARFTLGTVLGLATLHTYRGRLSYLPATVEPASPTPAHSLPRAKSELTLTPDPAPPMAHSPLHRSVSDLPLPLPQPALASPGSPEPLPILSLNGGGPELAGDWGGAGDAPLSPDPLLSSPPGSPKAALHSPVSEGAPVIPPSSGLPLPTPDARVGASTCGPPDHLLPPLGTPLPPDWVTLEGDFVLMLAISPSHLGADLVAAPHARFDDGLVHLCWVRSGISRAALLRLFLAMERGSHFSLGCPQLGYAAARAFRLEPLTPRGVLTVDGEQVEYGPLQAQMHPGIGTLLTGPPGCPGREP

Sphingosine kinase 1 [6] = biological target: T1, Sphingosine kinase 1; assay: Binding affinity to SphK1 in HEK293 cells assessed as induction of thermal stabilization at 1 uM and 51 to 63.2 degreeC by CETSA-based Western blot analysis; type: cell-based
Sphingosine kinase 2 = biological target: T3, Sphingosine kinase 2 (Homo sapiens, UniProt Q9NRA0); assay: Binding affinity to SphK2 in HEK293 cells assessed as direct target engagement incubated for 24 hrs followed by thermal denaturation at 61 degreeC by ITDRF-CETSA assay; type: cell-based
T3 sequence (Q9NRA0 whole entry): T2 sequence (whole entry)

Tubulin beta = assay: Binding affinity to beta tubulin in HEK293 cells assessed as disruption of microtubule polymerization by ITDRF-CETSA assay; type: cell-based, Homo sapiens
[7] = biological target: Cyclin-dependent kinase 1 (Homo sapiens) (UniProt P06493); assay: Activation of CDK1 in human HL60/VCR cells assessed as induction of Bcl2 phosphorylation at Ser70 residue at 300 nM after 24 hrs in presence of Ro-3306 by Western blot analysis; type: cell-based
[8] = biological target: Cyclin-dependent kinase 1 (Homo sapiens) (UniProt P06493); assay: Activation of CDK1 in human HL60/VCR cells assessed as activation of caspase 7 at 300 nM after 24 hrs in presence of Ro-3306 by Western blot analysis; type: cell-based
[9] = Effect on hematopoiesis in sub-lethal irradiated C57BL/6J mouse xenografted with […] MLL-AF9 cells assessed as CD45.1+/CD34 cells in bone marrow at 1 mg/kg measured after 6 weeks by flow cytometry analysis (reference value: 93 %); type: ADME, organism-based; settings: in vivo, 1008 h
[10] = Effect on hematopoiesis in sub-lethal irradiated C57BL/6J mouse xenografted with […] MLL-AF9 cells assessed as CD45.1+/CD34 cells in spleen at 1 mg/kg measured after 6 weeks by flow cytometry analysis (reference value: 90 %); type: ADME, organism-based; settings: in vivo, 1008 h
[11] = Effect on hematopoiesis in sub-lethal irradiated C57BL/6J mouse xenografted with […] MLL-AF9 cells assessed as CD45.1+/CD34 cells in spleen at 2.5 mg/kg measured after 6 weeks by flow cytometry analysis (reference value: 90 %); type: ADME, organism-based; settings: in vivo, 1008 h
[12] = Effect on hematopoiesis in sub-lethal irradiated C57BL/6J mouse xenografted with […] MLL-AF9 cells assessed as CD45.1+/CD34 cells in spleen at 5 mg/kg measured after 6 weeks by flow cytometry analysis (reference value: 90 %); type: ADME, organism-based; settings: in vivo, 1008 h
[13] = Toxicity in sub-lethal irradiated C57BL/6J mouse xenografted with […] MLL-AF9 cells assessed as WBC level at 1 mg/kg measured after 2 weeks (reference value: 6.5 +/- 0.4 10^3/ml); type: organism-based; settings: in vivo, 336 h
[14] = Toxicity in sub-lethal irradiated C57BL/6J mouse xenografted with […] MLL-AF9 cells assessed as Hb level at 1 mg/kg measured after 2 weeks (reference value: 13.4 +/- 0.5 g/dl); type: organism-based; settings: in vivo, 336 h
[15] = Toxicity in sub-lethal irradiated C57BL/6J mouse xenografted with […] MLL-AF9 cells assessed as HCT level at 1 mg/kg measured after 2 weeks (reference value: 45 +/- 1.4 %); type: organism-based; settings: in vivo, 336 h
[16] = Toxicity in sub-lethal irradiated C57BL/6J mouse xenografted with […] MLL-AF9 cells assessed as platelet level at 1 mg/kg measured after 2 weeks (reference value: 687 +/- 53 10^3/ml); type: organism-based; settings: in vivo, 336 h
[17] = Toxicity in sub-lethal irradiated C57BL/6J mouse xenografted with […] MLL-AF9 cells assessed as RBC level at 5 mg/kg measured after 2 weeks (reference value: 9.8 +/- 0.3 10^6/ml); type: organism-based; settings: in vivo, 336 h
[18] = Toxicity in sub-lethal irradiated C57BL/6J mouse xenografted with […] MLL-AF9 cells assessed as Hb level at 5 mg/kg measured after 2 weeks (reference value: 13.4 +/- 0.5 g/dl); type: organism-based; settings: in vivo, 336 h
[19] = Toxicity in sub-lethal irradiated C57BL/6J mouse xenografted with […] MLL-AF9 cells assessed as HCT level at 5 mg/kg measured after 2 weeks (reference value: 45 +/- 1.4 %); type: organism-based; settings: in vivo, 336 h

Chain of Cyclin-dependent kinase 1 (Homo sapiens) (P06493 whole entry, looked up, the tested form may be a part): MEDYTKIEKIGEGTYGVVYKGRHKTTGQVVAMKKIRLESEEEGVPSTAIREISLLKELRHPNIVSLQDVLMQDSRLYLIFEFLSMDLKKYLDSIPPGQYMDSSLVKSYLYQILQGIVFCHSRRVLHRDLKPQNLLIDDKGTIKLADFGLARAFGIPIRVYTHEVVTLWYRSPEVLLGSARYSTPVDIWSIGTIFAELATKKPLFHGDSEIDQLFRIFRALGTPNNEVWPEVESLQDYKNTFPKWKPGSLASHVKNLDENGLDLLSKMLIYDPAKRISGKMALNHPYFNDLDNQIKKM
T1 sequence (Q9NYA1 whole entry): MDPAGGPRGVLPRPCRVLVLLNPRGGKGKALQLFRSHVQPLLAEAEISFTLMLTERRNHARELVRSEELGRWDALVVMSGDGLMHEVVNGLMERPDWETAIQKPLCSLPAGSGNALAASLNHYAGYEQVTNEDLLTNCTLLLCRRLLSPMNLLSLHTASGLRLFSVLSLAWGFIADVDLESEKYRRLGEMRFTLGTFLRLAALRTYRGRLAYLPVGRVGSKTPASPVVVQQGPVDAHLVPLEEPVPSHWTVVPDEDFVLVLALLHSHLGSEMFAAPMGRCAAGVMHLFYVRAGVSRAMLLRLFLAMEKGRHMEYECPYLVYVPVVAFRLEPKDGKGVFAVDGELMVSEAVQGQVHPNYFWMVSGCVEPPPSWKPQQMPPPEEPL
Chain of Glycogen synthase kinase-3 alpha (Homo sapiens) (P49840 2-483 limits assumed): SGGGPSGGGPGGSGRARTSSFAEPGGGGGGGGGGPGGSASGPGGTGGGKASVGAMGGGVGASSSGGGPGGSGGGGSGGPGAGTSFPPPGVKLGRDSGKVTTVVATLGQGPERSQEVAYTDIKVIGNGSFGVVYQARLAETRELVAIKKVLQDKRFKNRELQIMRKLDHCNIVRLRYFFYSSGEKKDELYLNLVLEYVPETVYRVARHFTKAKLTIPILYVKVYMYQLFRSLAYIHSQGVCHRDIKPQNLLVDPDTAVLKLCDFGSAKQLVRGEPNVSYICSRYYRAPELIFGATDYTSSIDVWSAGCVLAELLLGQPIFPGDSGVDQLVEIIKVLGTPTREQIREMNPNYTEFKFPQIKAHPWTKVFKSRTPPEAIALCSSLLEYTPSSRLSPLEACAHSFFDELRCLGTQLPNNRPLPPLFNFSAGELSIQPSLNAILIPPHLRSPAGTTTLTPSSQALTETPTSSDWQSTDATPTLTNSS
Chain of Glycogen synthase kinase-3 beta (Homo sapiens) (P49841 whole entry, looked up, the tested form may be a part): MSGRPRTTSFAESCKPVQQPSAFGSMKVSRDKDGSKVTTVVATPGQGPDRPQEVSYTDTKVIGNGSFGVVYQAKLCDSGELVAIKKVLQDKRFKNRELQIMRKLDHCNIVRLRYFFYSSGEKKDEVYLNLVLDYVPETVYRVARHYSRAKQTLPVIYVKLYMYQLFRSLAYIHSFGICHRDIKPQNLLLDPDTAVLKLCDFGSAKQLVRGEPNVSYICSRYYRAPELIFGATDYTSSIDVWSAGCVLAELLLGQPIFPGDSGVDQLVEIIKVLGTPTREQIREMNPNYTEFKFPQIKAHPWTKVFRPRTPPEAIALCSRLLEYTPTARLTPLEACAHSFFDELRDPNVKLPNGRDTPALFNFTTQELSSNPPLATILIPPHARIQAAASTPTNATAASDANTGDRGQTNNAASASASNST

With `COc1ccc(Nc2nc(N)c(C(=O)c3ccc(OC)c(OC)c3)s2)cc1` the Activity [1] was “Active”, the Activity [2] was 27% and the Activity [3] was 2.5%. The IC50 (Sphingosine kinase 1 [4]) was 30000 nM, the inhibition (Tubulin (Homo sapiens)) was “Active” and the Activity [5] was “Active”. The Activity (Sphingosine kinase 1 [6]) was “Active”, the IC50 (Sphingosine kinase 2) was 60 nM and the IC50 (Tubulin beta) was 25 nM. The Activity [7] was “inactive”, the Activity [8] was “inactive” and the Activity [9] was 1%. The Activity [10] was 8%, the Activity [11] was 6% and the Activity [12] was 7%. For the same compound, the Activity [13] was 8.7 10^3/ml, the Activity [14] was 12.8 g/dL and the Activity [15] was 44%. The Activity [16] was 1193 10^3/ml, the Activity [17] was 9 10^6/ml and the Activity [18] was 12 g/dL. For the same compound, the Activity [19] was 41%.
